In the NIST ThermoML archive (doi:10.1016/j.jct.2012.07.022):

Legend:
[1] = Liquid; for electrical conductivity: Alternating current cell with electrodes; for viscosity: Capillary tube (Ostwald / Ubbelohde) method; for mass density: Vibrating tube method; for speed of sound: Linear variable-path acoustic interferometer
[2] = refractive index (Na D-line) (dimensionless); conditions: 101.33 kPa, Liquid, Standard Abbe refractometry

Nc1[nH]cnc2ncnc1-2 [6-amino-1H-purine]
[1], 101 kPa
Conditions	electrical conductivity [S/m]	mass density [kg/m3]	viscosity [mPa·s]
298.15 K	0.296	1097.6	128.5
303.15 K	0.382	1094.5	95.23
308.15 K	0.48	1091.4	72.42
313.15 K	0.594	1088.4	56.38
318.15 K	0.827	1085.3	44.79
323.15 K	0.986	1082.3	36.23
328.15 K	–	1079.3	29.78
333.15 K	–	1076.2	24.82
338.15 K	–	1073.3	20.95
343.15 K	–	1070.3	17.88

CC(=O)[O-].CCCCn1cc[n+](C)c1 [1-butyl-3-methylimidazolium acetate]
[1], 101.33 kPa
Conditions	electrical conductivity [S/m]	mass density [kg/m3]	speed of sound [m/s]	viscosity [mPa·s]
283.15 K	0.0131	1061.85	1700	1927
288.15 K	0.0215	1058.77	1683	1165
293.15 K	0.0331	1055.69	1666	736.6
298.15 K	0.049	1052.63	1650	485.1
303.15 K	0.0699	1049.61	1635	330.9
308.15 K	0.0968	1046.6	1621	233
313.15 K	0.131	1043.59	1608	168.7
318.15 K	0.172	1040.59	1595	125.2
323.15 K	0.221	1037.58	1582	95.05
328.15 K	–	1034.58	1570	73.63
333.15 K	–	1031.59	1558	58.09
338.15 K	–	1028.61	1546	46.57
343.15 K	–	1025.64	1534	37.91

[2]
Conditions	refractive index
283.15 K	1.49925
288.15 K	1.49781
293.15 K	1.49634
298.15 K	1.49488
303.15 K	1.49342
308.15 K	1.49197
313.15 K	1.49053
318.15 K	1.48909
323.15 K	1.48765
328.15 K	1.48619
333.15 K	1.48477
338.15 K	1.48332
343.15 K	1.48189

CC(=O)[O-].CCn1cc[n+](C)c1 [1-ethyl-3-methylimidazolium acetate]
[1], 101.33 kPa
Conditions	electrical conductivity [S/m]	mass density [kg/m3]	speed of sound [m/s]	viscosity [mPa·s]
283.15 K	0.114	1107.56	1778	388.6
288.15 K	0.162	1104.47	1764	258.4
293.15 K	0.222	1101.36	1750	179.1
298.15 K	0.296	1098.26	1737	128.5
303.15 K	0.382	1095.16	1725	95.23
308.15 K	0.48	1092.07	1712	72.42
313.15 K	0.594	1089	1700	56.38
318.15 K	0.827	1085.94	1687	44.79
323.15 K	0.986	1082.9	1675	36.23
328.15 K	–	1079.87	1664	29.78
333.15 K	–	1076.84	1652	24.82
338.15 K	–	1073.83	1640	20.95
343.15 K	–	1070.83	1628	17.88

[2]
Conditions	refractive index
283.15 K	1.50423
288.15 K	1.50283
293.15 K	1.50144
298.15 K	1.50001
303.15 K	1.49861
308.15 K	1.49718
313.15 K	1.49577
318.15 K	1.49436
323.15 K	1.49295
328.15 K	1.49154
333.15 K	1.49015
338.15 K	1.48876
343.15 K	1.48734

O=c1cc[nH]c(=O)[nH]1 [2,4(1H,3H)-pyrimidinedione]
[1], 101 kPa
Conditions	electrical conductivity [S/m]	mass density [kg/m3]	viscosity [mPa·s]
298.15 K	0.296	1097.6	128.5
303.15 K	0.382	1094.5	95.23
308.15 K	0.48	1091.4	72.42
313.15 K	0.594	1088.4	56.38
318.15 K	0.827	1085.3	44.79
323.15 K	0.986	1082.3	36.23
328.15 K	–	1079.3	29.78
333.15 K	–	1076.2	24.82
338.15 K	–	1073.3	20.95
343.15 K	–	1070.3	17.88
